From article PMC12136037, “Type II kinase inhibitors that target Parkinson’s disease–associated LRRK2” (Science Advances, 2025)

Experiments:
Experiment in all cases: DSF 100 kinase selectivity screen;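 further: compound tested at 20 µM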
Type in all cases: binding
[1] = molecular target: T1, ~100 representative kinases (Homo sapiens, UniProt Q9H2G2); settings: Protein SLK; DSF; average of three replicates
T1 construct: Recombinant protein kinase domains with a concentration of 2 μM
How it was run: (§1)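 Each kinase domain, at 2 μM, is mixed with 20 μM test compound and SYPRO Orange in Hepes (20 mM, pH 7.5) with 500 mM NaCl. Temperature is then raised at 3°C/min and fluorescence-monitored unfolding yields the melting temperature change, ΔTm in degrees Celsius.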

[2] = molecular target: T2, ~100 representative kinases (Homo sapiens, UniProt P17948); settings: protein FLT1; average of three replicates
T2 construct: Recombinant protein kinase domains with a concentration of 2 μM
How it was run: as §1

[3] = molecular target: T3, ~100 representative kinases (Homo sapiens, UniProt Q09013); settings: Protein DMPK1; average of three replicates
T3 construct: Recombinant protein kinase domains with a concentration of 2 μM
T3 sequence (Q09013 1-629): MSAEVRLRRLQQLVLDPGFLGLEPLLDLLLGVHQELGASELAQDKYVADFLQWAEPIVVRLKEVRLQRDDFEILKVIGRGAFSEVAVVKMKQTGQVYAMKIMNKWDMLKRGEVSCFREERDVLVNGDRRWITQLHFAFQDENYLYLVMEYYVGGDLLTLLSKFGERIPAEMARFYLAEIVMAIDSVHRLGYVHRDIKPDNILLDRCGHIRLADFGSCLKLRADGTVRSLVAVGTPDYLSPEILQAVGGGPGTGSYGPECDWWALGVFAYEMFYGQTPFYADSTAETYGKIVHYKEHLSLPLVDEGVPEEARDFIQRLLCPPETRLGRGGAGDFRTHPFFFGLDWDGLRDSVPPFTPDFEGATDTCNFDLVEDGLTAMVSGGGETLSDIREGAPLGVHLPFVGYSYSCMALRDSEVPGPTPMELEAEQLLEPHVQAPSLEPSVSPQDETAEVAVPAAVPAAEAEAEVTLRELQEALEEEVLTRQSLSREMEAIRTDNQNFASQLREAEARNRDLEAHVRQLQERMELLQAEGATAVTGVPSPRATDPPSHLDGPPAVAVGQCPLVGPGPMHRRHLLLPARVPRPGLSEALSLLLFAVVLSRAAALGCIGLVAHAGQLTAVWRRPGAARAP
How it was run: as §1

[4] = molecular target: T4, ~100 representative kinases (Homo sapiens, UniProt P16083); settings: protein NQO2; average of three replicates
T4 construct: Recombinant protein kinase domains with a concentration of 2 μM
T4 sequence (P16083 1-231): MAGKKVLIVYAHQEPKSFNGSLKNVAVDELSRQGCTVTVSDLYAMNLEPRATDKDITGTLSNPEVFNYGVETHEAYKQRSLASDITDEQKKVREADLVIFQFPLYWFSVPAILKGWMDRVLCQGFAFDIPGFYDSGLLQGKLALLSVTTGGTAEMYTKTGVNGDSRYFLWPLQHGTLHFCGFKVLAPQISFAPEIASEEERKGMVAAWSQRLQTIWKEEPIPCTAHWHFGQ
How it was run: as §1

[5] = molecular target: T5, ~100 representative kinases (Homo sapiens, UniProt O43293); settings: Protein DAPK3; average of three replicates
T5 construct: Recombinant protein kinase domains with a concentration of 2 μM
How it was run: as §1

[6] = molecular target: T6, ~100 representative kinases (Homo sapiens, UniProt Q13627); settings: Protein DYRK1A; average of three replicates
T6 construct: Recombinant protein kinase domains with a concentration of 2 μM
How it was run: as §1

[7] = molecular target: T7, ~100 representative kinases (Homo sapiens, UniProt Q16566); settings: Protein CAMK4; average of three replicates
T7 construct: Recombinant protein kinase domains with a concentration of 2 μM
T7 sequence (Q16566 1-473): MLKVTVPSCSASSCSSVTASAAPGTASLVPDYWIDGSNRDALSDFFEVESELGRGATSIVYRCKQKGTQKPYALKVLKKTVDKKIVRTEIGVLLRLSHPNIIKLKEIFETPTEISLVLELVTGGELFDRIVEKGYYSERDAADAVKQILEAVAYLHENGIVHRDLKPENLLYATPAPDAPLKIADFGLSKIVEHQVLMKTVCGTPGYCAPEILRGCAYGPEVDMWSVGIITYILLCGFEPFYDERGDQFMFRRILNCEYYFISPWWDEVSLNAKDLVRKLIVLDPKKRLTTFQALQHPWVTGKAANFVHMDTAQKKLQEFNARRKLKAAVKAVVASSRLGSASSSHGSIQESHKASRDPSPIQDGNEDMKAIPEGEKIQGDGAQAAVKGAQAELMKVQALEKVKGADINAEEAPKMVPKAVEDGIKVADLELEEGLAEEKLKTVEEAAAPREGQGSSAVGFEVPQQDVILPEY
How it was run: as §1

[8] = molecular target: T8, ~100 representative kinases (Homo sapiens, UniProt P00519); settings: Protein ABL1; average of three replicates
T8 construct: Recombinant protein kinase domains with a concentration of 2 μM
How it was run: as §1

[9] = molecular target: T9, ~100 representative kinases (Homo sapiens, UniProt P49137); settings: protein MAPKAPK2; average of three replicates
T9 construct: Recombinant protein kinase domains with a concentration of 2 μM
How it was run: as §1

[10] = molecular target: T10, ~100 representative kinases (Homo sapiens, UniProt O95747); settings: protein OSR1; average of three replicates
T10 construct: Recombinant protein kinase domains with a concentration of 2 μM
How it was run: as §1

[11] = molecular target: T11, ~100 representative kinases (Homo sapiens, UniProt O96017); settings: Protein CHEK2; average of three replicates
T11 construct: Recombinant protein kinase domains with a concentration of 2 μM
How it was run: as §1

[12] = molecular target: T12, ~100 representative kinases (Homo sapiens, UniProt Q9Y2H1); settings: Protein STK38L; DSF; average of three replicates
T12 construct: Recombinant protein kinase domains with a concentration of 2 μM
How it was run: as §1

[13] = molecular target: T13, ~100 representative kinases (Homo sapiens, UniProt P54756); settings: Protein EPHA5; average of three replicates
T13 construct: Recombinant protein kinase domains with a concentration of 2 μM
How it was run: as §1

[14] = molecular target: T14, ~100 representative kinases (Homo sapiens, UniProt P11309); settings: protein PIM1; average of three replicates
T14 construct: Recombinant protein kinase domains with a concentration of 2 μM
How it was run: as §1

[15] = molecular target: T15, ~100 representative kinases (Homo sapiens, UniProt P19784); settings: Protein CK2A2; average of three replicates
T15 construct: Recombinant protein kinase domains with a concentration of 2 μM
How it was run: as §1

T5 sequence (O43293 whole entry, the tested form may be a part): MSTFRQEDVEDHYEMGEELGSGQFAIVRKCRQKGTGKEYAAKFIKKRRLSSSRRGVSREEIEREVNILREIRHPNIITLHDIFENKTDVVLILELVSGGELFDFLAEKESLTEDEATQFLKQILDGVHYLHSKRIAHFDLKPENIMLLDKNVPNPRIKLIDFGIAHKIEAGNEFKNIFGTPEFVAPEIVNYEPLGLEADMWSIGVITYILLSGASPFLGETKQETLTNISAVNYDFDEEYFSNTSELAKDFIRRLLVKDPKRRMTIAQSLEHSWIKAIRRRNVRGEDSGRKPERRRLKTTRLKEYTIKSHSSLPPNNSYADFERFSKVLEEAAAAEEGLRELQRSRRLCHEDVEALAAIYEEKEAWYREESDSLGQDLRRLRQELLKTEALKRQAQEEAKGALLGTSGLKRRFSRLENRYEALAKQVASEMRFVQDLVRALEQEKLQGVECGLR
T11 sequence (O96017 whole entry, the tested form may be a part): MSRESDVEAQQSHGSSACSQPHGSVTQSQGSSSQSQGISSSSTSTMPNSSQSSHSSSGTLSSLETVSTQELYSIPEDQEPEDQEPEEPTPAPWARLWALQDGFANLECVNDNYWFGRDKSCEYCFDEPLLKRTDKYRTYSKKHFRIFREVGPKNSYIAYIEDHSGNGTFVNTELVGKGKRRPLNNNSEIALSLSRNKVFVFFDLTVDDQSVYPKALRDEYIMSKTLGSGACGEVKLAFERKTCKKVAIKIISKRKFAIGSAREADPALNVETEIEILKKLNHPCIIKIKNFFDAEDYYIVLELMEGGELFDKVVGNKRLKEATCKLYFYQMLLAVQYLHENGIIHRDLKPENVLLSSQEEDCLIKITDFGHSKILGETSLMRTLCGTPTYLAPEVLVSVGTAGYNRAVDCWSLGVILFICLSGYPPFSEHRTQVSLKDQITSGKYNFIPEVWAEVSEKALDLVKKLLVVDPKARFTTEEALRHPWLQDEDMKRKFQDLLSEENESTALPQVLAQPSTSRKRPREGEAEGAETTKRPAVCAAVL
T8 sequence (P00519 whole entry, the tested form may be a part): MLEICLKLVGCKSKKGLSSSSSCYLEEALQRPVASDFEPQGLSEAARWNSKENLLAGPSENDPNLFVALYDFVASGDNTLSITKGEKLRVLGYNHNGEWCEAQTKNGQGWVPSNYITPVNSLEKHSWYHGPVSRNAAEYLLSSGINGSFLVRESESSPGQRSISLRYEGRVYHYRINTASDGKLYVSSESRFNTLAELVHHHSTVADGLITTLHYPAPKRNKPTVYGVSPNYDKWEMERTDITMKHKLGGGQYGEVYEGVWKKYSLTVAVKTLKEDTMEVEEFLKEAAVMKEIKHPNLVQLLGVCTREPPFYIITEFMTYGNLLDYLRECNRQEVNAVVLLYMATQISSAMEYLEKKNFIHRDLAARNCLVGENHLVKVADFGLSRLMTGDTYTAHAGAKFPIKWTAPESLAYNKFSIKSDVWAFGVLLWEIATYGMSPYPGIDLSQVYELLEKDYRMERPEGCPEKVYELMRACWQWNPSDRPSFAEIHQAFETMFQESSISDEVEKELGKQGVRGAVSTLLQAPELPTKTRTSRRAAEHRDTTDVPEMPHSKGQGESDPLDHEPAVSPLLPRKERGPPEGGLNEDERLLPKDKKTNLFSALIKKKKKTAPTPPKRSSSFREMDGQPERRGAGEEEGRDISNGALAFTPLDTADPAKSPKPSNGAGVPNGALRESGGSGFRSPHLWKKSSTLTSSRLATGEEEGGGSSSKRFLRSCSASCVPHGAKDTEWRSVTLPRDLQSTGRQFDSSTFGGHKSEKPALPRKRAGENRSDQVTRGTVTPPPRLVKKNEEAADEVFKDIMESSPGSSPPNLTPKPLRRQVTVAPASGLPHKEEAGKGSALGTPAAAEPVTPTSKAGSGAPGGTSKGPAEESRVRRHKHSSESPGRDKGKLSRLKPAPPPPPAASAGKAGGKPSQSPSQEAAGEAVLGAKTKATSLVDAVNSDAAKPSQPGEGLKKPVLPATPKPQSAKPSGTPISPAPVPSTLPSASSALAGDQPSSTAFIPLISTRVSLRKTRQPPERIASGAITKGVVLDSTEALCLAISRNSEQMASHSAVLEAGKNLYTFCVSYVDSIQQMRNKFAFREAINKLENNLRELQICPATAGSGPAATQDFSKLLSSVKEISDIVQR
T13 sequence (P54756 25-1037): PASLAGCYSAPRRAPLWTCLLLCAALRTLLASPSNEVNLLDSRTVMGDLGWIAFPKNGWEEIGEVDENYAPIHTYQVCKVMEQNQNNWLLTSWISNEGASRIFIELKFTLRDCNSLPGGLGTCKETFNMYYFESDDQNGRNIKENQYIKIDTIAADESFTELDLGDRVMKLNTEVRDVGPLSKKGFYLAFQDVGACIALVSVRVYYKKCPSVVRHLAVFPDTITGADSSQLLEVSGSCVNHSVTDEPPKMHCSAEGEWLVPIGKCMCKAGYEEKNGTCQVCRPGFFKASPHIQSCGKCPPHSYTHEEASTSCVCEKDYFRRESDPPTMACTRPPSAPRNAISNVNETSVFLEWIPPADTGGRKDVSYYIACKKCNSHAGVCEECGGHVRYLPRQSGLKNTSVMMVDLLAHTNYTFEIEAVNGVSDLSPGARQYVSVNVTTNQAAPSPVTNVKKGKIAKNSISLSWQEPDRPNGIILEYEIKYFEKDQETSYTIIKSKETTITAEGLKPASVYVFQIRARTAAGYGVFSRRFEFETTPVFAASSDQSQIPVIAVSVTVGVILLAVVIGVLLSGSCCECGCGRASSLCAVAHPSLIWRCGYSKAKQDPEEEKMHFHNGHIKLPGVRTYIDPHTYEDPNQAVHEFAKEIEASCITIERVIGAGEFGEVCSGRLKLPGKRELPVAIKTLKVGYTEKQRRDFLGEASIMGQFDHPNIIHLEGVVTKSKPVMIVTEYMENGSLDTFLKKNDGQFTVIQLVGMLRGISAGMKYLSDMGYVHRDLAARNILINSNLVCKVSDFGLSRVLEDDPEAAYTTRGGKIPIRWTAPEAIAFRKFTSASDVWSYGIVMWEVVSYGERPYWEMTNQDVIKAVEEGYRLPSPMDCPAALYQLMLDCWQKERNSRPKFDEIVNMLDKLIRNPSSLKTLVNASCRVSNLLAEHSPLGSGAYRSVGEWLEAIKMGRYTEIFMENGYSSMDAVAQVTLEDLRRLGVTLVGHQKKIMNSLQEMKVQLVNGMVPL
T12 sequence (Q9Y2H1 whole entry, the tested form may be a part): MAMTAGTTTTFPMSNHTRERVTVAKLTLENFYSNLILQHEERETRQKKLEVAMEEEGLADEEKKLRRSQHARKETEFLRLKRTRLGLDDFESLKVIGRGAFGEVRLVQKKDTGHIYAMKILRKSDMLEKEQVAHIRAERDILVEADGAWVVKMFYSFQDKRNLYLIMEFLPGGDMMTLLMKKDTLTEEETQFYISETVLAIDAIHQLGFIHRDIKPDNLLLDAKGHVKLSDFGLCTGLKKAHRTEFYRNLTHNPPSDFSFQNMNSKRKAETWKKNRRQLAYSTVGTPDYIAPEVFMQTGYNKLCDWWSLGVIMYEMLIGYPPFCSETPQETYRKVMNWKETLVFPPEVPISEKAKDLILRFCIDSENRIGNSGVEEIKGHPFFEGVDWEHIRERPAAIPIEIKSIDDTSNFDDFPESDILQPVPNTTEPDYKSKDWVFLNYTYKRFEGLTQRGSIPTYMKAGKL
T14 sequence (P11309 whole entry, the tested form may be a part): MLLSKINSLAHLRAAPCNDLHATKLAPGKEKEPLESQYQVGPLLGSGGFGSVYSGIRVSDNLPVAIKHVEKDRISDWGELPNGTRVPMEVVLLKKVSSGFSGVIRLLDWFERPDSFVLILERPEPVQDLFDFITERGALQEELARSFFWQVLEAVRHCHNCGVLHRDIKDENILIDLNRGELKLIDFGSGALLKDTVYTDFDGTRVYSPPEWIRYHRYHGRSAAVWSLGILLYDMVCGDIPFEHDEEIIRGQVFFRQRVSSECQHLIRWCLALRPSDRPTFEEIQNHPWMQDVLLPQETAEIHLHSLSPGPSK
T9 sequence (P49137 whole entry, the tested form may be a part): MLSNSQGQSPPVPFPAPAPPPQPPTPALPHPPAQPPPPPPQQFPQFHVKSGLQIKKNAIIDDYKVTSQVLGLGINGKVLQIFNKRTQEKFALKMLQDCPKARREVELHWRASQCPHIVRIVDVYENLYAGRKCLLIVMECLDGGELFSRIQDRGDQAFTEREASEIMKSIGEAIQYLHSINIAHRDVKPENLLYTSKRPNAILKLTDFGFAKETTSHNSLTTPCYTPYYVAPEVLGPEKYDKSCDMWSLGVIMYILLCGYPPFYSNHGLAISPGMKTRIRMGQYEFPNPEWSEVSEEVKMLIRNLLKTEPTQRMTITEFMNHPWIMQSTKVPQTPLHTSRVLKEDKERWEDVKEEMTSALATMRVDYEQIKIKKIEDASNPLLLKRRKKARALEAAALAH
T10 sequence (O95747 whole entry, the tested form may be a part): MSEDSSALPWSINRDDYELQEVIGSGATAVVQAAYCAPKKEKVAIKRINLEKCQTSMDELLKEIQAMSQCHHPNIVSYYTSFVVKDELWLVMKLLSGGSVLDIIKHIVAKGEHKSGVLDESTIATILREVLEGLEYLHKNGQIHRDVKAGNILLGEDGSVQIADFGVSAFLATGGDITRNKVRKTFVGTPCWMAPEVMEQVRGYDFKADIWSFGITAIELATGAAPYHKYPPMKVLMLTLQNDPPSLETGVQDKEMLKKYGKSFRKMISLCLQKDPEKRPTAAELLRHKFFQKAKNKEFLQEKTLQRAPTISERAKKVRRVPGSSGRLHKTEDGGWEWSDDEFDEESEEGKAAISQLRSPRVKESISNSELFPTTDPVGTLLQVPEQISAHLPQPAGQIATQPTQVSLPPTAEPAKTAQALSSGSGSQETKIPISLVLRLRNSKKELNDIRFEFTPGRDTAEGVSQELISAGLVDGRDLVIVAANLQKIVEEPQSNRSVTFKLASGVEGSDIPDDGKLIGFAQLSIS

Row | SMILES | dTm [1] | dTm [2] | dTm [3] | dTm [4] | dTm [5] | dTm [6] | dTm [7] | dTm [8] | dTm [9] | dTm [10] | dTm [11] | dTm [12] | dTm [13] | dTm [14] | dTm [15]
1 | O=C(Nc1cc(F)cc(Br)c1)C1(C(=O)Nc2cccc(-c3c[nH]c4ncnc(N5CCOCC5)c34)c2)CC1 [Compound 27] | 3.29 K | 1.63 K | -0.12 K | -1.53 K | 4.42 K | -0.23 K | 0.92 K | 1.02 K | 0.07 K | 0.75 K | 1.74 K | -0.80 K | 0.40 K | 1.64 K | 2.42 K
2 | O=C(Nc1ccccc1)C1(C(=O)Nc2cccc(-c3c[nH]c4ncnc(N5CCOCC5)c34)c2)CC1 [Compound 12] | 5.53 K | 3.09 K | -0.21 K | 1.99 K | 6.20 K | 4.34 K | 1.57 K | 1.58 K | -0.15 K | 1.28 K | 3.05 K | 0.29 K | 1.91 K | 3.25 K | 7.05 K
3 | Cc1ccc(NC(=O)C2(C(=O)Nc3cccc(-c4c[nH]c5ncnc(N6CCOCC6)c45)c3)CC2)cc1 [Compound 14] | 5.25 K | 4.17 K | -0.76 K | 0.0157 K | 4.16 K | 3.30 K | 1.05 K | 1.79 K | -0.14 K | 1.54 K | 3.90 K | 0.07 K | 3.63 K | 1.13 K | 5.87 K
4 | O=C(Nc1cccc(-c2c[nH]c3ncnc(N4CCOCC4)c23)c1)C1(C(=O)Nc2ccc(F)c(Cl)c2)CC1 [Compound 18] | 8.41 K | 0.43 K | -0.69 K | 0.34 K | 10.62 K | 6.34 K | 3.34 K | 2.25 K | 0.22 K | 0.31 K | 5.34 K | 0.59 K | 2.50 K | 5.41 K | 1.36 K
5 | COc1cc(S(C)(=O)=O)ccc1Nc1nc(N(C)C)c2c(Cl)c[nH]c2n1 [Compound 37] | -0.88 K | -0.32 K | 0.0114 K | -0.63 K | 3.62 K | 2.45 K | -0.60 K | 0.38 K | 0.98 K | 1.40 K | 7.39 K | -1.21 K | -0.48 K | -0.49 K | 1.16 K
6 | O=C(Nc1cccc(-c2c[nH]c3ncnc(N4CCOCC4)c23)c1)C1(C(=O)Nc2cc(Br)c(F)cc2F)CC1 [Compound 25] | 1.44 K | 1.86 K | 0.24 K | -1.75 K | 3.02 K | 0.31 K | 1.53 K | 1.76 K | 0.00186 K | 0.13 K | 2.02 K | 0.00 K | 1.57 K | 2.04 K | 1.70 K

Next, values leading:

Row | dTm [1] | dTm [2] | dTm [3] | dTm [4] | dTm [5] | dTm [6] | dTm [7] | dTm [8] | dTm [9] | dTm [10] | dTm [11] | dTm [12] | dTm [13] | dTm [14] | dTm [15] | SMILES
7 | 7.45 K | 3.57 K | -0.32 K | 0.45 K | 8.55 K | 8.77 K | 3.78 K | 2.64 K | 0.68 K | 2.33 K | 5.52 K | 0.49 K | 4.99 K | 4.69 K | 9.70 K | O=C(Nc1ccc(Cl)cc1)C1(C(=O)Nc2cccc(-c3c[nH]c4ncnc(N5CCOCC5)c34)c2)CC1 [Compound 13]
8 | 13.65 K | 12.63 K | -2.09 K | -0.60 K | 0.00 K | 2.14 K | 2.94 K | 10.07 K | -0.55 K | 0.52 K | 12.51 K | -0.41 K | 6.71 K | 3.53 K | -2.10 K | Cc1ccc(-n2nc(C(C)(C)C)cc2NC(=O)Nc2cccc(-c3c[nH]c4ncnc(N5CCOCC5)c34)c2)cc1 [Compound 29]
9 | 8.05 K | 3.75 K | -0.17 K | -0.18 K | 8.34 K | 1.71 K | 4.72 K | 1.83 K | -0.94 K | 1.49 K | 3.80 K | 0.00 K | 2.70 K | 3.98 K | 7.91 K | O=C(Nc1cccc(-c2c[nH]c3ncnc(N4CCOCC4)c23)c1)C1(C(=O)Nc2ccc(F)c(Br)c2)CC1 [Compound 19]
10 | 6.46 K | 4.33 K | -0.68 K | -0.15 K | 5.01 K | 2.17 K | 1.59 K | 2.49 K | -0.41 K | 1.98 K | 3.03 K | -0.37 K | 3.25 K | 0.92 K | -5.10 K | O=C(Nc1cccc(-c2c[nH]c3ncnc(N4CCOCC4)c23)c1)c1cccn(-c2ccc(F)cc2)c1=O [Compound 4]
11 | 6.64 K | 3.90 K | -0.63 K | -0.56 K | 7.00 K | 4.73 K | 2.18 K | 1.47 K | -0.40 K | 1.55 K | 4.13 K | -0.20 K | 3.27 K | 2.13 K | 6.40 K | O=C(Nc1ccc(F)cc1)C1(C(=O)Nc2cccc(-c3c[nH]c4ncnc(N5CCOCC5)c34)c2)CC1 [Compound 2]
